Results as given in ChEMBL document CHEMBL5500340, “Synthesis and biological activity of thiophene bioisosteres of natural styryl lactone goniofufurone and related compounds” (Eur J Med Chem, 2024).

How the values were obtained:
MRC5 = assay: Antiproliferative activity against human MRC5 cells by MTT colorimetric assay; assay type: functional, cell-based
Cell membrane = assay: Induction of cell membrane damage in human K562 cells measured after 72 hrs by acridine orange and ethidium bromide staining based analysis relative to control; assay type: cell membranes
MDA-MB-231 = assay: Antiproliferative activity against human MDA-MB-231 cells by MTT colorimetric assay; assay type: functional, cell-based
K562 [1] = assay: Induction of cell cycle arrest in human K562 cells assessed as increase in accumulation of cells at G2/M phase measured after 72 hrs by PI staining based flow cytometry analysis relative to control; assay type: functional
Jurkat = assay: Antiproliferative activity against human Jurkat cells by MTT colorimetric assay; assay type: functional, cell-based
K562 [2] = assay: Induction of apoptosis in human K562 cells assessed as morphological changes measured after 72 hrs relative to control; assay type: functional
HeLa = assay: Antiproliferative activity against human HeLa cells by MTT colorimetric assay; assay type: functional, cell-based
A549 [3] = assay: Antiproliferative activity against human A549 cells by MTT colorimetric assay; assay type: functional, cell-based
K562 [4] = assay: Induction of cell cycle arrest in human K562 cells assessed as decrease in accumulation of cells at S phase measured after 72 hrs by PI staining based flow cytometry analysis relative to control; assay type: functional; set-up: scale not given: the % may be the effect or the level left
K562 [5] = assay: Induction of cell cycle arrest in human K562 cells assessed as decrease in accumulation of cells at subG1 phase measured after 72 hrs by PI staining based flow cytometry analysis relative to control; assay type: functional; set-up: scale not given: the % may be the effect or the level left
K562 [6] = assay: Antiproliferative activity against human K562 cells by MTT colorimetric assay; assay type: functional, cell-based
MCF7 = assay: Antiproliferative activity against human MCF7 cells by MTT colorimetric assay; assay type: functional, cell-based
HL-60 = assay: Antiproliferative activity against human HL-60 cells by MTT colorimetric assay; assay type: functional, cell-based
Raji [7] = assay: Antiproliferative activity against human Raji cells by MTT colorimetric assay; assay type: functional, cell-based
A549 [8] = assay: Potency index, ratio of Doxorubicin IC50 to test compound IC50 for antiproliferative activity against human A549 cells by MTT colorimetric assay; assay type: functional
Raji [9] = assay: Potency index, ratio of Doxorubicin IC50 to test compound IC50 for antiproliferative activity against human Raji cells by MTT colorimetric assay; assay type: functional

Compound | IC50 (MDA-MB-231) [µM] | IC50 (Jurkat) [µM] | IC50 (HeLa) [µM] | IC50 (A549 [3]) [µM] | IC50 (K562 [6]) [µM] | IC50 (MCF7) [µM] | IC50 (HL-60) [µM] | IC50 (Raji [7]) [µM] | IC50 (MRC5) [µM] | Activity (Cell membrane) [%] | Activity (K562 [1]) [%] | Activity (K562 [2]) [%] | Activity (K562 [4]) [%] | Activity (K562 [5]) [%] | Ratio IC50 (A549 [8]) | Ratio IC50 (Raji [9])
O=C1C[C@H]2O[C@H]([C@H](O)c3ccccc3)[C@H](O)[C@H]2O1 |  |  |  |  |  |  | > 100 |  | > 100 | 31.5 |  | 145.1 |  |  |  | 
O=C1C[C@H]2O[C@H]([C@@H](O)c3cccs3)[C@H](O)[C@H]2O1 | 98.8 | 2.65 | 6.21 | 18.8 | 5.78 | 44.9 | 13 | 15 | 95.6 |  |  |  |  |  |  | 
O=C(/C=C/c1ccccc1)O[C@@H]1[C@H]2OC(=O)C[C@H]2O[C@@H]1[C@H](OC(=O)/C=C/c1ccccc1)c1cccs1 | 12.3 | 10.3 | 23.8 | 35.6 | 8.36 | 10.8 | 18.2 | 11.1 | > 100 |  |  |  |  |  |  | 
O=C(/C=C/c1ccc(F)cc1)O[C@H](c1cccs1)[C@H]1O[C@@H]2CC(=O)O[C@@H]2[C@H]1O | 2.11 | 19.7 | 4.63 | 13.3 | 6.56 | 10.5 | 18.9 | 23.9 | > 100 |  |  |  |  |  |  | 
O=C(/C=C/c1ccc(F)cc1)O[C@@H]1[C@H]2OC(=O)C[C@H]2O[C@@H]1[C@H](OC(=O)/C=C/c1ccc(F)cc1)c1cccs1 | 9.55 | 10.7 | 4.32 | 9.28 | 0.99 | 5.91 | 14.7 | 22.1 | > 100 |  |  |  |  |  |  | 
O=C1C[C@H]2O[C@H](C(=O)c3cccs3)[C@H](O)[C@H]2O1 | 8.93 | 25.3 | 12.4 | 14.9 | 18.4 | 23.4 | 39.6 | 11.4 | > 100 |  |  |  |  |  |  | 
O=C1C[C@H]2O[C@H]([C@@H](O)c3ccccc3)[C@H](O)[C@H]2O1 |  |  |  |  |  |  |  |  |  | 57.3 |  | 254.2 |  | >55 |  | 

More lines, main results first:

IC50 (MDA-MB-231) [µM] | IC50 (Jurkat) [µM] | IC50 (HeLa) [µM] | IC50 (A549 [3]) [µM] | IC50 (K562 [6]) [µM] | IC50 (MCF7) [µM] | IC50 (HL-60) [µM] | IC50 (Raji [7]) [µM] | Compound | IC50 (MRC5) [µM] | Activity (Cell membrane) [%] | Activity (K562 [1]) [%] | Activity (K562 [2]) [%] | Activity (K562 [4]) [%] | Activity (K562 [5]) [%] | Ratio IC50 (A549 [8]) | Ratio IC50 (Raji [9])
2.88 | 1.01 | 0.11 | 1.2 | 0.03 | 3.38 | 2.07 | 5.97 | O=C1C[C@H]2O[C@H]([C@H](O)c3cccs3)[C@H](O)[C@H]2O1 | > 100 | 40.6 | 31.2 | 196.5 | 24.2 | >85 | 4 | 
11.6 | 4.41 | 1.59 | 6.58 | 1.02 | 2.63 | 8.46 | 1.36 | CC1(C)O[C@H]2O[C@H]([C@@H](O)c3cccs3)[C@H](O)[C@H]2O1 | > 100 |  |  |  |  |  |  | 2
5.21 | 1.69 | 3.89 | 18.4 | 2.67 | 1.02 | 1.09 | 5.36 | O=C1C[C@H]2O[C@@H](C(=O)c3cccs3)[C@H](O)[C@H]2O1 | > 100 |  |  |  |  |  |  | 
8.12 | 1.06 | 2.85 | 7.32 | 0.89 | 4.34 | 1.05 | 3.45 | CC1(C)O[C@H]2O[C@H]([C@H](O)c3cccs3)[C@H](O)[C@H]2O1 | > 100 |  |  |  |  |  |  | 
16.3 | 34 | 5.58 | 5.61 | 6.34 | 15.6 | 8.08 | 20.5 | O=C(c1cccs1)[C@H]1OC(O)[C@H](O)[C@H]1O (some centres undefined) | > 100 |  |  |  |  |  |  | 
